Tests used:
[1] = system: ileum; assay: Magnus test: carbachol-induced contraction of isolated rat ileum; details: test compound 10 μM, then carbachol 50 nM, 100% = carbachol 1000 nM, 0% = DMSO + carbachol 50 nM, average ± standard error, read-out: Enhancement ratio P of the contraction force
Description: 9- to 15-week-aged SD female rats (Japan SLC, Inc.) were exsanguinated to death by amputation of carotid artery under isoflurane anesthesia. Then, the ileum was removed from each rat, and cut to a length of 2 cm while excising the mesentery and connective tissue, to prepare an intestinal sample. In a Magnus tank, this sample was immersed and suspended in 20 mL of a Krebs solution at 37° C. (118 mM NaCl, 4.7 mM KCl, 2.5 mM CaCl2, 1.2 mM MgSO4, 1.2 mM KH2PO4, 11 mM D-glucose, 20 mM NaHCO3) aerated with a mixed gas of 95% O2 and 5% CO2. Then, a load of 1 g was applied to the sample to stabilize the tension.
One end of the sample was connected to an isotonic transducer (IT-10, Medical Agent), and tension (contraction force) data was imported to a personal computer via Power Lab (registered trademark) (A&D Instruments Limited). Carbachol (Carbamylcholine Chloride, Cat. No. 036-09841, manufactured by FUJIFILM Wako Pure Chemical Industries, Ltd.) was added to the Krebs solution in the Magnus tank such that the final concentration thereof was 1000 nM, and contraction of the sample was checked. A contraction force Tb of the sample at this time was defined as 100%. Then, the Magnus tank was washed with a Krebs solution three times to wash away carbachol, and the Magnus tank was finally filled with 20 mL of a Krebs solution.
Next, dimethyl sulfoxide (DMSO, Cat. No. 13445-74, manufactured by NACALAI TESQUE, INC.) was added to the Krebs solution in the Magnus tank, then carbachol was added to the Krebs solution in the Magnus tank such that the final concentration thereof was 50 nM, and contraction of the sample was checked. A contraction force Ta of the sample at this time was defined as 0%. Then, the Magnus tank was washed with a Krebs solution three times to wash away carbachol and DMSO, and the Magnus tank was finally filled with 20 mL of a Krebs solution. Next, a test compound dissolved in DMSO was added to the Krebs solution in the Magnus tank such that the final concentration thereof was 10 μM, then carbachol was added to the Krebs solution in the Magnus tank such that the final concentration thereof was 50 nM, and contraction of the sample was checked.
As described above, the contraction force Tb of the sample when carbachol was added at a final concentration of 1000 nM was defined as 100%, and the contraction force Ta of the sample when carbachol was added at a final concentration of 50 nM under the condition that DMSO was added first instead of the test compound was defined as 0%. The contraction force of the sample when carbachol was added at a final concentration of 50 nM under the condition that the test compound was added first at a final concentration of 10 μM was denoted by Tc, and an enhancement ratio P (unit: %) of the contraction force by the test compound was calculated according to the following equation (2). The increase in contraction force by the test compound was evaluated on the basis of the enhancement ratio P. The number of cases in each addition group was 3 to 7.
P=100×(Tc−Ta)/(Tb−Ta) (2)

[2] = system: anesthetized mice; assay: Measurement of secreted saliva amount in anesthetized mice; format: in vivo, mouse; details: urethane-anesthetized male ICR mice; 10 mg/kg intravenous; cotton balls weighed after 30 minutes; average ± standard error
Description: 8-week-aged male ICR mice (Japan SLC, Inc.) were anesthetized with urethane (1650 mg/kg, intraperitoneal administration). After about 1 hour, a test compound or a vehicle (physiological saline containing 10% DMSO (OTSUKA NORMAL SALINE, manufactured by Otsuka Pharmaceutical Factory, Inc.)) was intravenously administered at 10 mg/kg, and immediately after that, one or two absorbent cotton wool balls ([…]) (Roller Cotton (cotton ball) SS, manufactured by Nichiei Co., Ltd.) were inserted into the mouth. The difference between the weight of the absorbent cotton balls after 30 minutes from insertion and the weight of the absorbent cotton balls before insertion was defined as an amount of saliva secreted. At this time, the test compound was dissolved in DMSO and then diluted 10-fold with physiological saline. The administration volumes of the test compound and the vehicle were each set to 5 mL/kg. The experiment was carried out in three parts. The number of cases in each administration group was 3-4.

COCC1(CN(C)c2cc(-c3cnc(C4CC4)c(C(F)(F)F)c3)nc3nc(-c4cnc(N5CCN(CCC(=O)[O-])C[C@H]5C)cn4)[nH]c23)CCCC1.[Na+] [Example 15, Sodium 3-[(3R)-4-(5-{5-[6-cyclopropyl-5-(trifluoromethyl)pyridin-3-yl]-7-[{[1-(methoxymethyl)cyclopentyl]methyl}(methyl)amino]-1H-imidazo[4,5-b]pyridin-2-yl}pyrazin-2-yl)-3-methylpiperazin-1-yl]propanoate]
activation at 10 µM [1]: 79.3 ± 12.2%
Amount of saliva secreted [2]: 304.98 ± 58.25 mg

From patent US20230000840A1, “THERAPEUTIC AGENTS AND PROPHYLACTIC AGENTS FOR FUNCTIONAL GASTROINTESTINAL DISORDERS AND XEROSTOMIA” (NIPPON SHINYAKU CO., LTD., priority 2019, published 2023)
